The test system of test [1] is hereditary angioedema (HAE). As to conditions: bradykinin B2 receptor antagonist; cited from earlier work.
Test [2] has as its target human plasma kallikrein (Homo sapiens (Human), UniProt P03952). In words: Plasma kallikrein activity assay (chromogenic substrate S2302). It is filed as biochemical. As to conditions: 2 nM kallikrein, 80 μM S2302, 30° C., pH 7.8; Ki by Cheng-Prusoff equation; values given as ranges; read-out: Ki.

Chain of human plasma kallikrein (P03952 whole entry, looked up): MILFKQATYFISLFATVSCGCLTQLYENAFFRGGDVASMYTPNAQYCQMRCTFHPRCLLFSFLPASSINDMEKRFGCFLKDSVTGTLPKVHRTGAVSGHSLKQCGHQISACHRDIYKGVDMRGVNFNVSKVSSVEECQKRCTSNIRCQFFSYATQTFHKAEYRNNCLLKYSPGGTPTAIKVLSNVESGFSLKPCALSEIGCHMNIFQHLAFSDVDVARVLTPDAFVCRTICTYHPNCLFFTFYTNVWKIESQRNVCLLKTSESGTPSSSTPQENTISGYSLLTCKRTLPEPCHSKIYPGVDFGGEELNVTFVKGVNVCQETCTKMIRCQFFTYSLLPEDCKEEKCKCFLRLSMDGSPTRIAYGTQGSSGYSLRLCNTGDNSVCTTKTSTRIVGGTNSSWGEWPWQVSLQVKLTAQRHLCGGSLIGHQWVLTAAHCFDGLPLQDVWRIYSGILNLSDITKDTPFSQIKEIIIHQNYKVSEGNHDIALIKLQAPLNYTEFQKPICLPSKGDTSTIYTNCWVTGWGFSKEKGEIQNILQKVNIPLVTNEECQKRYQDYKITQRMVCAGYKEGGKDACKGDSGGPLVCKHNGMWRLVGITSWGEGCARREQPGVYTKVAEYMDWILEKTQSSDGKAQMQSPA
Chain of human plasma kallikrein (P03952 whole entry partner, looked up): as the sequence (P03952 whole entry, looked up) above

For `NC(N)=NCCC[C@@H](N)C(=O)N[C@@H](CCCN=C(N)N)C(=O)N1CCC[C@H]1C(=O)N1C[C@H](O)C[C@H]1C(=O)NCC(=O)N[C@@H](Cc1cccs1)C(=O)N[C@@H](CO)C(=O)N1Cc2ccccc2C[C@@H]1C(=O)N1[C@H](C(=O)N[C@@H](CCCN=C(N)N)C(=O)O)C[C@@H]2CCCC[C@@H]21` [Icatibant], in test [1], the “treatment of HAE” value is “effective in treating HAE”.

Turning to `CCC(CO)NC(c1ccccc1)c1cccc(NC(=O)c2cc(C(F)(F)F)nn2-c2cccc(CN)c2)c1` (stereo not shown) [168b, 1-(3-(Aminomethyl)phenyl)-N-(3-(((1-hydroxybutan-2-yl)amino)(phenyl)methyl)phenyl)-3-(trifluoromethyl)-1H-pyrazole-5-carboxamide], in test [2], the Ki lay in the range of 0.1 to 50 nM.

Consider `NCc1cccc(-n2nc(C(F)(F)F)cc2C(=O)Nc2cccc(C(NCC3CC3)c3cccc4c3OCO4)c2)c1` (stereo not shown) [192f, 1-(3-(aminomethyl)phenyl)-N-(3-(benzo[d][1,3]dioxol-4-yl(cyclopropylmethylamino)methyl)phenyl)-3-(trifluoromethyl)-1H-pyrazole-5-carboxamide], for which the Ki in test [2] lay in the range of 0.1 to 50 nM.

Take `CS(=O)(=O)NC(CCC1CC1)(c1ccncc1)c1ccc(F)c(NC(=O)c2cc(C(F)(F)F)nn2-c2cccc(CN)c2)c1` (single isomer, unassigned; (-)) [245c, (−)-1-(3-(aminomethyl)phenyl)-N-(5-(3-cyclopropyl-1-(methylsulfonamido)-1-(pyridin-4-yl)propyl)-2-fluorophenyl)-3-(trifluoromethyl)-1H-pyrazole-5-carboxamide]: the Ki in test [2] is 0.1 to 50 nM.

For the molecule `NCc1cccc(-n2nc(C(F)(F)F)cc2C(=O)Nc2cccc(C(OCC3CC3)c3cccc(N)c3)c2)c1` (single isomer, unassigned; (-)) [64a, (−)-1-(3-(aminomethyl)phenyl)-N-(3-((3-aminophenyl)(cyclopropyl-methoxy)methyl)phenyl)-3-(trifluoromethyl)-1H-pyrazole-5-carboxamide], the inhibitory constant (Ki) in test [2] was in the range of 0.1 to 50 nM.

Turning to `NCc1cccc(-n2nc(C(F)(F)F)cc2C(=O)Nc2cccc(C(O)(CCC3CC3)c3ccncc3)c2)c1` (stereo not shown) [92g, 1-(3-(aminomethyl)phenyl)-N-(3-(3-cyclopropyl-1-hydroxy-1-(pyridin-4-yl)propyl)phenyl)-3-(trifluoromethyl)-1H-pyrazole-5-carboxamide], the inhibitory constant (Ki) in test [2] fell in the range of 0.1 to 50 nM.

As for `COc1cccc(C(NCC2CC2)c2cccc(NC(=O)c3cc(C(F)(F)F)nn3-c3cccc(CN)c3)c2)c1` (stereo not shown) [109f, 1-(3-(Aminomethyl)phenyl)-N-(3-((cyclopropylmethylamino)(3-methoxyphenyl)methyl)phenyl)-3-(trifluoromethyl)-1H-pyrazole-5-carboxamide], the inhibition constant (Ki) in test [2] was 0.1 to 50 nM.

`Cc1cc(C(=O)Nc2cccc(C(NCC3CC3)c3ccccc3)c2)n(-c2cccc(CN)c2)n1` (stereo not shown) [143l, 1-(3-(aminomethyl)phenyl)-N-(3-((cyclopropylmethylamino)(phenyl)methyl)phenyl)-3-methyl-1H-pyrazole-5-carboxamide]: the inhibition constant (Ki) in test [2] lay within 0.1 to 50 nM.

Take `NCc1cccc(-n2nc(C(F)(F)F)cc2C(=O)Nc2cc(C(NCC3CC3)c3cccnc3)ccc2F)c1` (stereo not shown) [94b, 1-(3-(aminomethyl)phenyl)-N-(5-((cyclopropylmethylamino)(pyridin-3-yl)methyl)-2-fluorophenyl)-3-(trifluoromethyl)-1H-pyrazole-5-carboxamide]: the inhibitory constant (Ki) in test [2] lay in the range of 0.1 to 50 nM.

As to `CC(C)C(=O)NC(CCC1CC1)(c1cccnc1)c1ccc(F)c(NC(=O)c2cc(C(F)(F)F)nn2-c2cccc(CN)c2)c1` (single isomer, unassigned; (-)) [244j, (−)-1-(3-(aminomethyl)phenyl)-N-(5-(3-cyclopropyl-1-isobutyramido-1-(pyridin-3-yl)propyl)-2-fluorophenyl)-3-(trifluoromethyl)-1H-pyrazole-5-carboxamide], the Ki in test [2] lay in the range of 0.1 to 50 nM.

As for `CS(=O)(=O)c1ccccc1C(NCC1CC1)c1cccc(NC(=O)c2cc(C(F)(F)F)nn2-c2cccc(CN)c2)c1` (stereo not shown) [121f, 1-(3-(aminomethyl)phenyl)-N-(3-((cyclopropylmethylamino)(2-(methylsulfonyl)phenyl)methyl)phenyl)-3-(trifluoromethyl)-1H-pyrazole-5-carboxamide], in test [2], the Ki was in the range of 0.1 to 50 nM.

For the molecule `NCc1cccc(-n2nc(C(F)(F)F)cc2C(=O)Nc2cc(C(N)(CCC3CC3)c3ccncc3)ccc2F)c1` (single isomer, unassigned; (+)) [216d, (+)-N-(5-(1-amino-3-cyclopropyl-1-(pyridin-4-yl)propyl)-2-fluorophenyl)-1-(3-(aminomethyl)phenyl)-3-(trifluoromethyl)-1H-pyrazole-5-carboxamide], the Ki in test [2] was in the range of 0.1 to 50 nM.

For the molecule `NCc1cccc(-n2nc(C(F)(F)F)cc2C(=O)Nc2cccc(C(NCC3CC3)c3ccncc3)c2)c1` (stereo not shown) [86g, 1-(3-(aminomethyl)phenyl)-N-(3-((cyclopropylmethylamino)(pyridin-4-yl)methyl)phenyl)-3-(trifluoromethyl)-1H-pyrazole-5-carboxamide], the Ki in test [2] was 0.1 to 50 nM.

On to `NCc1cccc(-n2nc(C(F)(F)F)cc2C(=O)Nc2cc(C(NCC3CC3)c3cccc(N)c3)ccc2F)c1` (stereo not shown) [131b, 1-(3-(aminomethyl)phenyl)-N-(5-((3-aminophenyl)(cyclopropylmethylamino)methyl)-2-fluorophenyl)-3-(trifluoromethyl)-1H-pyrazole-5-carboxamide], for which, in test [2], the Ki lay in the range of 0.1 to 50 nM.

For the molecule `NCc1cccc(-n2nc(C(F)(F)F)cc2C(=O)Nc2cccc(C(NCC3CC3)c3ccc(F)cc3F)c2)c1` (stereo not shown) [196f, 1-(3-(aminomethyl)phenyl)-N-(3-(((cyclopropylmethyl)amino)(2,4-difluorophenyl)methyl)phenyl)-3-(trifluoromethyl)-1H-pyrazole-5-carboxamide], the Ki in test [2] was in the range of 0.1 to 50 nM.

Consider `NCc1cccc(-n2nc(C(F)(F)F)cc2C(=O)Nc2cc(C(CCC3CC3)n3ccncc3=O)ccc2F)c1` (stereo not shown) [249b, 1-(3-(aminomethyl)phenyl)-N-(5-(3-cyclopropyl-1-(2-oxopyrazin-1(2H)-yl)propyl)-2-fluorophenyl)-3-(trifluoromethyl)-1H-pyrazole-5-carboxamide], for which the inhibition constant (Ki) in test [2] was in the range of 0.1 to 50 nM.

In the case of `NCc1cccc(-n2nc(C(F)(F)F)cc2C(=O)Nc2cc(C(CCC3CC3)N3CCCCC3=O)ccc2F)c1` (single isomer, unassigned; (+)) [261k, (+)-1-(3-(aminomethyl)phenyl)-N-(5-(3-cyclopropyl-1-(2-oxopiperidin-1-yl)propyl)-2-fluorophenyl)-3-(trifluoromethyl)-1H-pyrazole-5-carboxamide], the inhibition constant (Ki) in test [2] lay within 0.1 to 50 nM.

Consider `CC(C)NC(c1ccccc1)c1cccc(NC(=O)c2cc(C(F)(F)F)nn2-c2cccc(CN)c2)c1` (stereo not shown) [144d, 1-(3-(Aminomethyl)phenyl)-N-(3-((isopropylamino)(phenyl)methyl)phenyl)-3-(trifluoromethyl)-1H-pyrazole-5-carboxamide], for which the Ki in test [2] was 0.1 to 50 nM.

Turning to `N=C(N)c1cccc(-n2nc(C(F)(F)F)cc2C(=O)Nc2cc(C(N)(CCC3CC3)c3cccnc3)ccc2F)c1` (single isomer, unassigned; (+)) [238d, (+)-N-(5-(1-amino-3-cyclopropyl-1-(pyridin-3-yl)propyl)-2-fluorophenyl)-1-(3-carbamimidoylphenyl)-3-(trifluoromethyl)-1H-pyrazole-5-carboxamide], the inhibitory constant (Ki) in test [2] was in the range of 0.1 to 50 nM.

Regarding `CC(C)CC(=O)NC(CCC1CC1)(c1cccnc1)c1ccc(F)c(NC(=O)c2cc(C(F)(F)F)nn2-c2cccc(CN)c2)c1` (single isomer, unassigned; (-)) [244k, (−)-1-(3-(aminomethyl)phenyl)-N-(5-(3-cyclopropyl-1-(3-methylbutanamido)-1-(pyridin-3-yl)propyl)-2-fluorophenyl)-3-(trifluoromethyl)-1H-pyrazole-5-carboxamide], the inhibition constant (Ki) in test [2] is 0.1 to 50 nM.

As for `CCCN(c1ccccc1)c1ccc(F)c(NC(=O)c2cc(C(F)(F)F)nn2-c2cccc(CN)c2)c1` [77e, 1-(3-(aminomethyl)phenyl)-N-(2-fluoro-5-(phenyl(propyl)amino)phenyl)-3-(trifluoromethyl)-1H-pyrazole-5-carboxamide], the Ki in test [2] was in the range of 0.1 to 50 nM.

For the molecule `NCc1cccc(-n2nc(C(F)(F)F)cc2C(=O)Nc2cccc(C(NCC3CC3)c3cn[nH]c3)c2)c1` (stereo not shown) [84h, 1-(3-(aminomethyl)phenyl)-N-(3-(((cyclopropylmethyl)amino)(1H-pyrazol-4-yl)methyl)phenyl)-3-(trifluoromethyl)-1H-pyrazole-5-carboxamide], the Ki in test [2] lay in the range of 0.1 to 50 nM.

The record behind these values is patent publication US11203574B2 (BioCryst Pharmaceuticals, Inc., priority 2014, dated 2021).
